Experimental data reported in patent publication US8053470B2, “Process for the preparation of polynuclear ferric hydroxide-saccaride complexes” (Chongqing Pharmaceutical Research Institute Co., Ltd., priority 2005, dated 2011).

Assay: Isoelectric point of the iron-saccharide complex: pH at which its aqueous solution turns turbid on drop-wise addition of diluted hydrochloric acid (USP 27 iron sucrose injection method)
Type: physicochemical
Details: examples described in text; Example 1 measured by method of 27th version of USP
Description: The term “isoelectric point” herein refers to a pH value at which the aqueous solution of iron-saccharide complexes turns turbid during the drop-wise addition of a diluted hydrochloric acid solution.

Substance	isoelectric point of the final product
Polynuclear Ferric Hydroxide-fructose Complex [Example 11]	5.2
Polynuclear Ferric Hydroxide-sucrose Complex [Example 1]	4.4
